Experimental data as given in publication PMC12418703, “Avenanthramides and avenacosides as biomarkers of oat intake: a pharmacokinetic study of solid and liquid oat consumption under single and repeated dose conditions” (Nutrition Journal, 2025).
Read-outs that look alike come from different tables or passages of the source.

Key:
[1] = PK-model estimation of oat product dose and dosing interval needed to reach plasma concentration above LLOQ; parameters: species or system humans; settings: for estimated volume of liquid oats resulting in plasma concentration above LLOQ: consumption interval every 4 h; for estimated intake volume of liquid oats needed for plasma concentration above LLOQ: intake every 8 h
Experimental: A compartmental model with two absorption compartments and a plasma compartment with linear elimination for each molecule separately described better the experimental data from the single dose intake compared to a compartmental model of a single absorption compartment (Figure S3). Parameter estimation was performed using the non-linear mixed-effects approach with lognormal inter-individual variability in all three model parameters: distribution volume over bioavailability ( [drawing 1] ), absorption rate ( [drawing 2] ), elimination rate ( [drawing 3] ), (R package nlmixr2 [34]). The results were reported as population means with coefficient of variation (Table S1). The area under the curve (AUC) and Cmax were normalized (AUCnorm) for the nmol intake of each molecule. Statistical analysis was conducted with R software environment. The compounds were compared for their PK parameters within the same product and between products using repeated ANOVA approach (lme4 package) and then by pairwise comparison adjusted for post hoc Tukey-Kramer honestly significant difference. All statistical analyses were performed on log- transformed data. Based on the PK models built on the single-dose data, a linear relationship ( [drawing 4] was derived between dose and dosing interval (intake frequency, [drawing 5] ) to estimate the AVA intake needed to reach an average concentration (at steady state) that is measurable above lower limit of quantification (LLOQ). To translate the intake of AVAs from the linear relationship (Dose) to corresponding oat flake product intake, we estimated the content of AVAs in different products using reported data from the literature and assigned values, where possible. For the flakes, information in literature was available for AVA 2c, AVA 2p and AVA 2 f. Therefore, an average value for these compounds per food product was assigned while for the oat drink and for the less known AVAs; AVA 2pd and AVA 2fd, an average value based on the measured products in our laboratory was used (Table S2). In the second phase of the intervention, following a repeated dosing period of 4 days, plasma concentrations were determined over a dosing interval recorded by the individuals and were compared to their corresponding predicted values in blood. This comparison allowed for an assessment of the model’s accuracy in predicting AVAs’ behavior under repeated dosing conditions. Only experimental data above the limit of quantification were used for the comparison. Further, the data were tested for outliers with the interquartile range (IQR) approach and five observations were considered outliers and were removed.

[2] = parameters: method as in PMID 39491249; settings: in the presence of starch; cited from earlier work
[3] = parameters: method as in PMID 30977921; settings: cited from earlier work
[4] = control samples (digestion without proteins)
[5] = in the presence of whey protein

Row | estimated volume of liquid oats resulting in plasma concentration above LLOQ [1] | estimated intake volume of liquid oats needed for plasma concentration above LLOQ [1] [mL] | average amount of oat flakes needed to reach measurable plasma levels (above LLOQ) ([1]; oat flakes consumed every 4 h) [g] | amount of oat flakes needed to reach measurable plasma levels (above LLOQ) ([1]; oat flakes consumed every 8 h) [g] | SMILES | change of bioaccessibility [2] | bioaccessibility, times lower compared to AVA 2f [3, 4] [times] | bioaccessibility, times lower compared to AVA 2p [3, 4] [times] | bioaccessibility, times increase [3, 5] [times] | change of bioaccessibility [3, 5]
1 | about 30 mL | 65 |  |  | O=C(/C=C/c1ccc(O)c(O)c1)Nc1ccc(O)cc1C(=O)O [AVA 2c] | increased | 3.9 | 4.6 | 3.6 | 
2 |  |  | 235 | 470 | COc1cc(/C=C/C(=O)Nc2ccc(O)cc2C(=O)O)ccc1O [AVA 2f] | decreased |  |  |  | slight increase
3 | about 30 mL | 65 |  |  | O=C(/C=C/c1ccc(O)cc1)Nc1ccc(O)cc1C(=O)O [AVA 2p] | decreased |  |  |  | slight increase
